How the values were obtained:
Assay type in all cases: cell-based
human TLR7 = target: T1, human TLR7 (Homo sapiens, UniProt Q9NYK1); test: TLR7 inhibition reporter assay (HEK-Blue SEAP reporter, gardiquimod stimulation); settings: HEK-Blue cells overexpressing human TLR7, SEAP reporter, gardiquimod 7.5 μM, 22 hour incubation
T1 construct: host or cells: HEK-Blue cells
T1 sequence (Q9NYK1 27-1049): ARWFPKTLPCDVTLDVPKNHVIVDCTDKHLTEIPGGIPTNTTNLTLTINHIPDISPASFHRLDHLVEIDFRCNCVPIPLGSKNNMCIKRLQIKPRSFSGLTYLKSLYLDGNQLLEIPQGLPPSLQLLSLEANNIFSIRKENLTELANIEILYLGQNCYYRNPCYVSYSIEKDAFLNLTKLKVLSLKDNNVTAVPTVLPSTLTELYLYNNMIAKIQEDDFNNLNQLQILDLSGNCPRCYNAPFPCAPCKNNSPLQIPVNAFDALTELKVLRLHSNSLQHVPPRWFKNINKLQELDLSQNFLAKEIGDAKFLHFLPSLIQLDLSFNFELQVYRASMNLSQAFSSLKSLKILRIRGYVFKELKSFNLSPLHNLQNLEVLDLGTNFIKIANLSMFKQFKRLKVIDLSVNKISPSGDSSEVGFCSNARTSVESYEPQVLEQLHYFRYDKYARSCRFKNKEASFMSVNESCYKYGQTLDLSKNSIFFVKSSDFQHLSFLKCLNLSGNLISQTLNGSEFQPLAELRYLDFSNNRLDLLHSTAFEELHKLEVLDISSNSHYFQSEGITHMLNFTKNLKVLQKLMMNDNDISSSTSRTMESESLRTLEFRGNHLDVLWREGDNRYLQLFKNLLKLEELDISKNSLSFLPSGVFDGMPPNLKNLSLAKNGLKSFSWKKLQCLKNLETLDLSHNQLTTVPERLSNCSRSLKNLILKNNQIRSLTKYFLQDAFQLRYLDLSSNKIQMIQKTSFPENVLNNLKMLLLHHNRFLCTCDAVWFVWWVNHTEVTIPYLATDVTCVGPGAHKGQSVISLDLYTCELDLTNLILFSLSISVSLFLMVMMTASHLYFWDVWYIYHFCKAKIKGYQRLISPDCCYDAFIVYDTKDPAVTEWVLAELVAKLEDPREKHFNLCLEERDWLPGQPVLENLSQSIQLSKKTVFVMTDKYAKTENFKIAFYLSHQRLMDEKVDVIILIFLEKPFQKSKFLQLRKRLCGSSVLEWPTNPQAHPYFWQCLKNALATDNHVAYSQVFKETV
Summary of the method: (§1)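 HEK-Blue cells overexpressing human TLR7, TLR8 or TLR9 carry a SEAP reporter driven by NF-κB/AP-1 sites. Compounds (0.05 nM–50 μM) were preincubated 30 min at room temperature, then cells were stimulated with gardiquimod 7.5 μM (TLR7), R848 15.9 μM (TLR8) or ODN2006 5 nM (TLR9) for 22 h at 37 °C.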

human TLR8 = target: T2, human TLR8 (Homo sapiens, UniProt Q9NR97); test: TLR8 inhibition reporter assay (HEK-Blue SEAP reporter, R848 stimulation); settings: HEK-Blue cells overexpressing human TLR8, SEAP reporter, R848 15.9 μM, 22 hour incubation
T2 construct: host or cells: HEK-Blue cells
T2 sequence (Q9NR97 27-1041): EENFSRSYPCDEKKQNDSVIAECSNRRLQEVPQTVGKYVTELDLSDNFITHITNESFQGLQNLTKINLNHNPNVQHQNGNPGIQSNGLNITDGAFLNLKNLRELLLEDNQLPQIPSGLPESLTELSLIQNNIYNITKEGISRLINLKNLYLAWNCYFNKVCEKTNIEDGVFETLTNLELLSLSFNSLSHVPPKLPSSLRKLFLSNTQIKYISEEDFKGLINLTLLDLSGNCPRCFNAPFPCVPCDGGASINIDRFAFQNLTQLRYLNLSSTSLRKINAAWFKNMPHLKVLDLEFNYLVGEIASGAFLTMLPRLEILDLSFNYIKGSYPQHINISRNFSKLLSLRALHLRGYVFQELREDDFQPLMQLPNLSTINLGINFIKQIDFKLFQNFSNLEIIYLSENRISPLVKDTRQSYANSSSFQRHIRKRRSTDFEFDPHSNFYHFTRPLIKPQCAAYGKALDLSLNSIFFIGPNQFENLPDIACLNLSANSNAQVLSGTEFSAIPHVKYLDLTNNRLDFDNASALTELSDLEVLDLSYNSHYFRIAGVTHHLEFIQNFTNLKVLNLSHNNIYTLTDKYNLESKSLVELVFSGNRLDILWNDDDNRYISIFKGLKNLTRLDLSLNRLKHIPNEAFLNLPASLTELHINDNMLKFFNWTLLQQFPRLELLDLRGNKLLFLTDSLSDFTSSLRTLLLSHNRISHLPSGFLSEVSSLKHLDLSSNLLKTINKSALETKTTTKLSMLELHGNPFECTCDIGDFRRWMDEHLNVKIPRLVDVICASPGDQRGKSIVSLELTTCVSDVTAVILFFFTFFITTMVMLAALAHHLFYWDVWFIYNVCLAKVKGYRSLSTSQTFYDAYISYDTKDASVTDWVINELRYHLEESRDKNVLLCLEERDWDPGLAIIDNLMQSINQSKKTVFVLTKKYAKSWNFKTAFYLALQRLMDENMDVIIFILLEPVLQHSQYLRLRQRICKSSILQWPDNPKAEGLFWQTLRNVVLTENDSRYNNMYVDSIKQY
Summary of the method: as §1

human TLR9 = target: T3, human TLR9 (Homo sapiens, UniProt Q9NR96); test: TLR9 inhibition reporter assay (HEK-Blue SEAP reporter, ODN2006 stimulation); settings: HEK-Blue cells overexpressing human TLR9, SEAP reporter, ODN2006 5 nM, 22 hour incubation
T3 construct: host or cells: HEK-Blue cells
T3 sequence (Q9NR96 26-1032): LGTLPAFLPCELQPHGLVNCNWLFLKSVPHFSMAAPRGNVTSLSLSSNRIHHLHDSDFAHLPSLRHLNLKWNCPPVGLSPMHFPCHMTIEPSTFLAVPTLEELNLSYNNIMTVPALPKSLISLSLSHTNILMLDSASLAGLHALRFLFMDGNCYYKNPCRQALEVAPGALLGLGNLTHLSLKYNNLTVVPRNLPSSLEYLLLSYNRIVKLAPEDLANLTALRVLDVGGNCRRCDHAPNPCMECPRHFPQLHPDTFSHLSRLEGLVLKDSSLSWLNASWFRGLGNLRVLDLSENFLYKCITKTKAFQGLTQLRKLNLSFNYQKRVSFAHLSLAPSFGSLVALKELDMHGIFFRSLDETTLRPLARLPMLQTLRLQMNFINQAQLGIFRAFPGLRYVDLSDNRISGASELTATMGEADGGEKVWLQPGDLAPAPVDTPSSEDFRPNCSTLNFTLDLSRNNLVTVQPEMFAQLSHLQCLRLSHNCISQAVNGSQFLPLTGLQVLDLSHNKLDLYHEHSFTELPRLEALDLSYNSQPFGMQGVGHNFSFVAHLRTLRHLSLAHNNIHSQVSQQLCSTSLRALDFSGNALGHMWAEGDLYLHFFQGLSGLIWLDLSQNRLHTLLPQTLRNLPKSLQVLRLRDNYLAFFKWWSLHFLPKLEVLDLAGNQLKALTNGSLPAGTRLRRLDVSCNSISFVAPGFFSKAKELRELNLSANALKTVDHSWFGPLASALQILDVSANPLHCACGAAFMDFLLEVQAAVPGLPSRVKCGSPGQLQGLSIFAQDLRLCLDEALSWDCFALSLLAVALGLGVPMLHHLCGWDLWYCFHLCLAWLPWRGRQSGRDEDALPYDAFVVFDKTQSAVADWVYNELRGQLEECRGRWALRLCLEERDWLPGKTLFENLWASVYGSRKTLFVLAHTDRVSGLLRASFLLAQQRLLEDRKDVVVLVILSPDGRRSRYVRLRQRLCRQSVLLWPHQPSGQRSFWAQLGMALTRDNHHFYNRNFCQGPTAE
Summary of the method: as §1

IC50 (human TLR7) [nM]	IC50 (human TLR8) [nM]	IC50 (human TLR9) [nM]	SMILES
3.7	5.2	33600	Cc1cc(-c2[nH]c3ccc(C4CCN(C5CCN(C)C5=O)CC4)cc3c2C(C)C)cn(C)c1=O (stereo not drawn) [Example 127, 5-(3-isopropyl-5-(1-(1-methyl-2-oxopyrrolidin-3-yl)piperidin-4-yl)-1H-indol-2-yl)-1,3-dimethylpyridin-2(1H)-one]
11.1	16.9	7050	COCc1cc(-c2[nH]c3ccc(C4CCN(C5CCOCC5)CC4)cc3c2C(C)C)cn(C)c1=O [Example 345, 5-(3-isopropyl-5-(1-(tetrahydro-2H-pyran-4-yl)piperidin-4-yl)-1H-indol-2-yl)-3-(methoxymethyl)-1-methylpyridin-2(1H)-one]
114	61.9	9690	Cc1nc(-c2[nH]c3ccc(C4CCN(C(=O)CN(C)C)CC4)cc3c2C(C)C)cn(C)c1=O [Example 295, 5-(5-(1-(dimethylglycyl)piperidin-4-yl)-3-isopropyl-1H-indol-2-yl)-1,3-dimethylpyrazin-2(1H)-one]
6	17	1790	COc1cc(-c2[nH]c3ccc(C4CCNCC4)cc3c2C(C)C)cn(C)c1=O [Example 20, 5-(3-isopropyl-5-(piperidin-4-yl)-1H-indol-2-yl)-3-methoxy-1-methylpyridin-2(1H)-one]
7.1	10.3	4980	COCCCN1CCC(c2ccc3[nH]c(-c4cn(C)c(=O)c(Cl)c4C)c(C(C)C)c3c2)CC1 [Example 99, 3-chloro-5-(3-isopropyl-5-(1-(3-methoxypropyl)piperidin-4-yl)-1H-indol-2-yl)-1,4-dimethylpyridin-2(1H)-one]
27.9	37.3	4460	COc1c(C)c(-c2[nH]c3ccc(C4CCN(CC(=O)N(C)C)CC4)cc3c2C(C)C)cn(C)c1=O [Example 141, 2-(4-(3-isopropyl-2-(5-methoxy-1,4-dimethyl-6-oxo-1,6-dihydropyridin-3-yl)-1H-indol-5-yl)piperidin-1-yl)-N,N-dimethylacetamide]
7.1	48	1460	Cc1cc(-c2[nH]c3ccc(C4CCNCC4)cc3c2C(C)C)cn(CC2CC2)c1=O [Example 34, 1-(cyclopropylmethyl)-5-(3-isopropyl-5-(piperidin-4-yl)-1H-indol-2-yl)-3-methylpyridin-2(1H)-one]
11.1	10.8	3790	Cc1cc(-c2[nH]c3ccc(C4CCN(CCCC(F)(F)F)CC4)cc3c2C(C)C)cn(C)c1=O [Example 79, 5-(3-isopropyl-5-(1-(4,4,4-trifluorobutyl)piperidin-4-yl)-1H-indol-2-yl)-1,3-dimethylpyridin-2(1H)-one]
8.6	0.8	487	CCCN1CCC(c2ccc3[nH]c(-c4cc(-c5cnn(C)c5)c(=O)n(C)c4)c(C(C)C)c3c2)CC1 [Example 334, 5-(3-isopropyl-5-(1-propylpiperidin-4-yl)-1H-indol-2-yl)-1-methyl-3-(1-methyl-1H-pyrazol-4-yl) pyridin-2(1H)-one]
11	97.5	≥ 50000	Cc1cc(-c2[nH]c3ccc(C4CCN(C(=O)C[C@H](C)O)CC4)cc3c2C(C)C)cn(C)c1=O [Example 305, (S)-5-(5-(1-(3-hydroxybutanoyl)piperidin-4-yl)-3-isopropyl-1H-indol-2-yl)-1,3-dimethylpyridin-2(1H)-one]
6.1	0.6	1660	CC(C)c1c(-c2cc(-c3cncnc3)c(=O)n(C)c2)[nH]c2ccc(C3CCN(CC(C)(C)O)CC3)cc12 [Example 326, 5-(5-(1-(2-hydroxy-2-methylpropyl)piperidin-4-yl)-3-isopropyl-1H-indol-2-yl)-1-methyl-3-(pyrimidin-5-yl)pyridin-2(1H)-one]
51.2	30.3	3030	Cc1cc(-c2[nH]c3ccc(C4CCNCC4)cc3c2C(C)C)cn(CCCO)c1=O [Example 38, 1-(3-hydroxypropyl)-5-(3-isopropyl-5-(piperidin-4-yl)-1H-indol-2-yl)-3-methylpyridin-2(1H)-one]
6	1.6	3280	Cc1c(-c2[nH]c3ccc(C4CCN(CC(C)(C)O)CC4)c(F)c3c2C(C)C)cn(C)c(=O)c1Cl [Example 327, 3-chloro-5-(4-fluoro-5-(1-(2-hydroxy-2-methylpropyl)piperidin-4-yl)-3-isopropyl-1H-indol-2-yl)-1,4-dimethylpyridin-2(1H)-one]
1.6	5.1	4340	Cc1cc(-c2[nH]c3ccc(C4CCNCC4)cc3c2C(C)C)cn(C)c1=O [Example 2, 5-(3-isopropyl-5-(piperidin-4-yl)-1H-indol-2-yl)-1,3-dimethylpyridin-2(1H)-one]
